Test results as given in the NIST ThermoML archive (doi:10.1021/je800579j).

Tests used:
[1] = Liquid, Pycnometric method
[2] = refractive index (Na D-line) (dimensionless); settings: Liquid, Standard Abbe refractometry
[3] = xn = mol fraction of the nth substance listed; settings: Liquid, Pycnometric method
[4] = refractive index (Na D-line) (dimensionless); xn = mol fraction of the nth substance listed; settings: Liquid, Standard Abbe refractometry

c1ccccc1 [benzene]
Settings	mass density, [1] [kg/m3]	refractive index, [2]
288.15 K	884.3	1.5042
293.15 K	878.95	1.5011
298.15 K	873.61	1.498
303.15 K	868.26	1.4949
308.15 K	862.9	1.4918
313.15 K	857.56	1.4887
318.15 K	852.23	1.4856

C1COCCO1 [1,4-dioxane] + Cc1cccc(C)c1
x1 = 1
Settings	mass density, [3] [kg/m3]	refractive index, [4]
288.15 K	1039.23	1.4245
293.15 K	1033.59	1.4224
298.15 K	1027.95	1.4203
303.15 K	1022.32	1.4182
308.15 K	1016.68	1.4161
313.15 K	1011.05	1.4139
318.15 K	1005.42	1.4117

Cc1cccc(C)c1 [1,3-dimethylbenzene]
Settings	mass density, [1] [kg/m3]	refractive index, [2]
288.15 K	868.59	1.4999
293.15 K	864.31	1.4974
298.15 K	860.02	1.4948
303.15 K	855.74	1.4922
308.15 K	851.45	1.4896
313.15 K	847.17	1.487
318.15 K	842.88	1.4844

C1COCCO1 [1,4-dioxane] + Cc1ccc(C)cc1
x1 = 1
Settings	mass density, [3] [kg/m3]	refractive index, [4]
288.15 K	1039.23	1.4245
293.15 K	1033.59	1.4224
298.15 K	1027.95	1.4203
303.15 K	1022.32	1.4182
308.15 K	1016.68	1.4161
313.15 K	1011.05	1.4139
318.15 K	1005.42	1.4117

Cc1ccccc1 [toluene] + C1COCCO1
x2 = 0
Settings	mass density, [3] [kg/m3]	refractive index, [4]
288.15 K	871.79	1.4998
293.15 K	867.08	1.497
298.15 K	862.36	1.4942
303.15 K	857.64	1.4913
308.15 K	852.93	1.4884
313.15 K	848.21	1.4855
318.15 K	843.49	1.4826

Cc1cc(C)cc(C)c1 [1,3,5-trimethylbenzene]
Settings	mass density, [1] [kg/m3]	refractive index, [2]
288.15 K	869.28	1.502
293.15 K	865.37	1.4995
298.15 K	861.45	1.4969
303.15 K	857.54	1.4944
308.15 K	853.63	1.4918
313.15 K	849.71	1.4893
318.15 K	845.8	1.4868

C1COCCO1 [1,4-dioxane] + Cc1cc(C)cc(C)c1
x1 = 1
Settings	mass density, [3] [kg/m3]	refractive index, [4]
288.15 K	1039.23	1.4245
293.15 K	1033.59	1.4224
298.15 K	1027.95	1.4203
303.15 K	1022.32	1.4182
308.15 K	1016.68	1.4161
313.15 K	1011.05	1.4139
318.15 K	1005.42	1.4117

c1ccccc1 [benzene] + C1COCCO1
x2 = 0
Settings	mass density, [3] [kg/m3]	refractive index, [4]
288.15 K	884.3	1.5042
293.15 K	878.95	1.5011
298.15 K	873.61	1.498
303.15 K	868.26	1.4949
308.15 K	862.9	1.4918
313.15 K	857.56	1.4887
318.15 K	852.23	1.4856

Cc1ccccc1C [1,2-dimethylbenzene]
Settings	mass density, [1] [kg/m3]	refractive index, [2]
288.15 K	884.09	1.5083
293.15 K	879.83	1.5055
298.15 K	875.57	1.5029
303.15 K	871.31	1.5002
308.15 K	867.05	1.4975
313.15 K	862.79	1.4948
318.15 K	858.53	1.4921

C1COCCO1 [1,4-dioxane]
Settings	mass density, [1] [kg/m3]	refractive index, [2]
288.15 K	1039.23	1.4245
293.15 K	1033.59	1.4224
298.15 K	1027.95	1.4203
303.15 K	1022.32	1.4182
308.15 K	1016.68	1.4161
313.15 K	1011.05	1.4139
318.15 K	1005.42	1.4117

Cc1ccccc1 [toluene]
Settings	mass density, [1] [kg/m3]	refractive index, [2]
288.15 K	871.79	1.4998
293.15 K	867.08	1.497
298.15 K	862.36	1.4942
303.15 K	857.64	1.4913
308.15 K	852.93	1.4884
313.15 K	848.21	1.4855
318.15 K	843.49	1.4826

Cc1ccc(C)cc1 [1,4-dimethylbenzene]
Settings	mass density, [1] [kg/m3]	refractive index, [2]
288.15 K	865.52	1.4985
293.15 K	861.17	1.4959
298.15 K	856.82	1.4933
303.15 K	852.47	1.4907
308.15 K	848.12	1.4881
313.15 K	843.77	1.4855
318.15 K	839.42	1.483

C1COCCO1 [1,4-dioxane] + Cc1ccccc1C
x1 = 1
Settings	mass density, [3] [kg/m3]	refractive index, [4]
288.15 K	1039.23	1.4245
293.15 K	1033.59	1.4224
298.15 K	1027.95	1.4203
303.15 K	1022.32	1.4182
308.15 K	1016.68	1.4161
313.15 K	1011.05	1.4139
318.15 K	1005.42	1.4117
